Test results published in patent publication US9555077B2 (UNIVERSITY OF MIYAZAKI, priority 2011, dated 2017).

Experiments:
rats with hyperthermia = assay: Suppressive effect of desacyl ghrelin against body temperature increase in rats with hyperthermia (rectal temperature, survival); assay type: in vivo, rat
Protocol: The rectal temperature was measured with a small animal body temperature controller ATC-101B made by Unique Medical Co., Ltd.
The life or death of each animal was determined in a comprehensive manner based on changes in the heart rate, respiratory rate, and body temperature, the amount of activity, the response to a physical stimulation, etc.
This experiment was performed in the same manner as in Example 1 unless otherwise stated.
While maintaining the air temperature in the laboratory at 33 to 35° C., the humidity was increased from 30% (at the beginning of the experiment) to 75% (at the end of the experiment), and thus the laboratory conditions were gradually changed to high temperature and high humidity conditions. The rats were then carried into the laboratory. The rats were housed in a plastic cage in groups of three each. […] As a control, 200 μl/rat of physiological saline was intraperitoneally injected to the rats.
At the elapsed time of 110 minutes (80 minutes after the intraperitoneal injection), the rats were transferred from the laboratory to room temperature.
At the elapsed time of 130 minutes (100 minutes after the intraperitoneal injection), the life or death of each rat was determined by visual observation and palpation.
The body temperature was measured at the rectum in this Example.

[1] = tested on: rats with the normal body temperature; assay: Hypothermic effect of desacyl ghrelin in rats with normal body temperature (back/tail surface temperature by thermography); assay type: in vivo, rat; conditions: male Wistar rats
Protocol: Male Wistar rats (9 to 10 weeks old) were used as experimental animals.
The administration to the animals was performed by a single dose of intraperitoneal or intracerebroventricular injection. The dose was 3 nmol/rat for intraperitoneal administration and 0.5 nmol/rat for intracerebroventricular administration, regardless of the weight of the animals. The weight of the rats varied from 350.2 to 375.8 g.
The back or tail surface temperature of the animals was measured for 1 hour at intervals of 1 minute by thermography using FLIR SC620 (software name: FLIR Rsearch IR) made by FLIR Systems Inc. The body temperature values measured by thermography are shown as increase and decrease from the zero reference point obtained by measurement of the body temperature for 10 minutes prior to the intraperitoneal injection.
The laboratory was maintained at room temperature and the rats were carried thereinto. […] As another control, 200 μl/rat of physiological saline was intraperitoneally injected to the rats.
As a control, 0.5 nmol/rat of the rat-derived ghrelin was intracerebroventricularly administered the rats. As another control, 200 μl/rat of physiological saline was intracerebroventricularly administered to the rats.
The back and tail surface temperatures were measured by thermography in this Example.

[2] = tested on: secretion of growth hormone (GH) from the pituitary gland; conditions: Broglio et al. 2004; cited from earlier work

desacyl ghrelin
survival (life or death of each rat) (rats with hyperthermia; elapsed time 130 minutes (100 minutes after 10 nmol/rat i.p.), three rats per group, two of three control rats died): all the three rats in the desacyl ghrelin-administered group survived
Body temperature of rats (rats with hyperthermia; rectal, elapsed time 0 minutes at 33 to 35° C. (before the injection)): 36.1 ± 0.1 °C
body temperature, lower than that of the physiological saline-administered group (rats with hyperthermia; rectal, elapsed time 50 to 110 minutes (20 to 80 minutes after 10 nmol/rat i.p.), p<0.05 or 0.01): 0.3 to 1.2 °C
Body temperature of rats (rats with hyperthermia; rectal, elapsed time 10 minutes (before the injection)): 37.0 ± 0.1 °C
Body temperature of rats (rats with hyperthermia; rectal, elapsed time 20 minutes (before the injection)): 38.2 ± 0.2 °C
Body temperature of rats (rats with hyperthermia; rectal, elapsed time 30 minutes (time of intraperitoneal injection, 10 nmol/rat)): 38.8 ± 0.2 °C
Body temperature of rats (rats with hyperthermia; rectal, elapsed time 40 minutes (10 minutes after 10 nmol/rat i.p.)): 39.2 ± 0.2 °C
Body temperature of rats (rats with hyperthermia; rectal, elapsed time 50 minutes (20 minutes after 10 nmol/rat i.p.)): 39.7 ± 0.0 °C
Body temperature of rats (rats with hyperthermia; rectal, elapsed time 60 minutes (30 minutes after 10 nmol/rat i.p.)): 39.9 ± 0.1 °C
Body temperature of rats (rats with hyperthermia; rectal, elapsed time 70 minutes (40 minutes after 10 nmol/rat i.p.)): 40.0 ± 0.3 °C
Body temperature of rats (rats with hyperthermia; rectal, elapsed time 80 minutes (50 minutes after 10 nmol/rat i.p.)): 40.2 ± 0.2 °C
Body temperature of rats (rats with hyperthermia; rectal, elapsed time 90 minutes (60 minutes after 10 nmol/rat i.p.)): 40.0 ± 0.2 °C
Body temperature of rats (rats with hyperthermia; rectal, elapsed time 100 minutes (70 minutes after 10 nmol/rat i.p.)): 40.1 ± 0.2 °C
Body temperature of rats (rats with hyperthermia; rectal, elapsed time 110 minutes (80 minutes after 10 nmol/rat i.p.)): 40.3 ± 0.1 °C
hypothermic effect in back surface temperature compared with ghrelin-administered group ([1]; 0.5 nmol/rat intracerebroventricular, 10 to 30 minutes after injection (FIG. 3)): higher hypothermic effect
heat dissipation effect compared with ghrelin ([1]; 3 nmol/rat intraperitoneal, tail surface temperature (FIG. 2)): more excellent than that of ghrelin
tail surface temperature ([1]; 3 nmol/rat intraperitoneal, thermography (FIG. 2)): increased
back surface temperature, lower than that of the physiological-saline administered group ([1]; room temperature, 3 nmol/rat intraperitoneal, 5 to 60 minutes after injection, thermography (FIG. 1)): 0.3 to 0.8 °C
activity to increase the secretion of growth hormone (GH) from the pituitary gland [2]: almost no activity
